Experimental data from US9974849B2, “Human Papilloma virus therapeutic vaccine” (The Board of Trustees of the University of Arkansas, priority 2013, dated 2018).

Legend:
[1] = Solubilizing HPV E6 peptides in buffer; format: physicochemical
Description: We attempted to make a pharmaceutical formulation with four HPV E6 peptides. The 4 peptides were peptides consisting of residues 1-45, 46-80, 81-115, and 116-158 of SEQ ID NO:1. Each of the peptides was amidated at its carboxyl terminus and acetylated at its amino terminus. The peptides were each chemically synthesized.
For the pharmaceutical formulation, this was mixed with trehalose as a stabilizing agent and glycine as tonicity modifier. The final concentrations of the formulation were 10 mM glutamate, 1.0% w/v trehalose, 2.0% w/v glycine, and 0.714 mg/ml each of the four peptides.

[2] = tested on: CD3 T cells co-cultured with autologous LCs; assay: T cell proliferation induced by treated LCs (alamarBlue); format: cell-based, human; details: 7 days co-culture

Substance	Solubility ([1]; added to 10 mM glutamate, pH 4.0 solution already containing solubilized E6 1-45, E6 46-80, E6 116-158, 5 mg/ml for each of the four peptides)	Solubility ([1]; alone, in any suitable buffer for manufacturing)	Subjects with measurable proliferation (increased fluorescence of ≥5000) [2]	T-cell proliferation ([2]; over media)
Ac-SEYRHYCYSLYGTTLEQQYNK PLCDLLIRCINCQK-NH2 [E6 81-115]	could be solubilized and will stay soluble	insoluble		
tetanus toxoid			subjects 2 and 5	no significant increase over media
